Measured values: PMC10002220, “In Vivo Reversal of P-Glycoprotein-Mediated Drug Resistance in a Breast Cancer Xenograft and in Leukemia Models Using a Novel, Potent, and Nontoxic Epicatechin EC31” (International Journal of Molecular Sciences, 2023)
Where two headings read alike, the source gives them in different places.

Experiments:
[1] = system: K562/P-gp cells; test: Drug resistance level: IC50 of anticancer drugs in K562/P-gp; format: cell-based, human
Description: (§1) In the Western blot membrane, the total P-gp and β-actin expression in each lane was quantified with ImageJ software. The relative P-gp expression was an intensity ratio of P-gp band relative to the β-actin band. The relative P-gp expression of the resistant cell line relative to its respective wild type was presented as a bar chart. The plasma membrane P-gp levels of LCC6MDR and K562/P-gp relative to their wild types were determined through flow cytometry using antihuman P-gp-PE antibodies. (B) LCC6MDR and LCC6. (C) K562/P-gp and K562. (D) the drug resistance levels of three P-gp-overexpressing cell lines and their wild types were studied. The 3 pairs of cell lines were incubated with anticancer drugs paclitaxel (PTX), doxorubicin (DOX), and vincristine (VCR) for 3 days, and the % of cell survival was then determined. Their IC50 (nM) values were calculated using Prism 5.0. RF (relative fold) was a ratio of IC50 of anticancer drugs in a P-gp-overexpressing cell line relative to its respective wild type. N = 3 independent experiments. […] All cell lines were counterstained with DAPI. (E) LCC6 and LCC6MDR, (F) P388 and P338ADR, and (G) K562 and K562/P-gp. Bar = 8 µm. / = not determined.

[2] = system: K562 cells; test: Drug resistance level: IC50 of anticancer drugs in K562; format: cell-based; conditions: Homo sapiens, K562, 72 h; 3 days incubation
Description: as §1

[3] = system: P-gp; test: EC50 for reversing drug resistance in P388ADR cells (cell proliferation assay)
Description: (§2) EC50 was defined as the concentration at which the modulator can reduce the IC50 of an anticancer drug by half in the P-gp-overexpressing cell lines. […] The P-gp-modulating activity of methylated catechin derivatives was further studied by measuring the EC50. […] Three P-gp-overexpressing cell lines were employed, including breast cancer cell line LCC6MDR, mouse leukemia cell line P388ADR, and human leukemia cell line K562/P-gp. The anticancer drugs tested included DOX, PTX, and VCR. All values were presented as mean ± standard error of mean. N = 3–6 independent experiments.
(§3) About 6500 cells of LCC6MDR or 10,000 cells of P388ADR or K562/P-gp were seeded to each well of 96-well plate and were then incubated at 37 °C overnight. […] Cell viability was determined using CellTiter 96 AQueous Assay (Promega, Madison, WI, USA, #G1111) as reported previously [38]. The % of cell survival, IC50 of anticancer drugs towards the cell line, and EC50 of modulators were analyzed using nonlinear regression in Prism 5.0.

[4] = Pharmacokinetics of methylated catechin derivatives in plasma; format: in vivo, BALB/c mice; conditions: BALB/c, mouse; for AUC(0-inf): read-out: AUC0-infinity (converted)
Description: Figure 4 Pharmacokinetics of methylated catechin derivatives and their effects on the PK of PTX. BALB/c mice were i.v. injected with 10 mg/kg or i.p. injected with 30 mg/kg of modulators. At 10, 30, 60, 180, 420, 840, and 1080 min postadministration, animals were sacrificed to collect their blood, and then the plasma concentration of modulator was determined using UPLC-MS/MS. The % of bioavailability of each modulator injected through i.p. injection route was calculated by comparing it to its plasma level when injected via i.v. injection. […] (E) Pharmacokinetic (PK) profiles of 4 potent methylated catechin derivatives were summarized. (F) The effect of modulators (GC51, EC31, or C25) on the PK of PTX was firstly determined through i.p. injection of modulator at 30 mg/kg 1 h prior to i.v. injection of 12 mg/kg PTX. At 10, 30, 60, 120, 240, and 420 min postadministration of PTX, animals were sacrificed. Plasma level of PTX was quantified through LC/MSMS. The dashed line indicates the corresponding EC50 of modulator in vitro for reversing PTX resistance. […] There were 3 mice at each time point. All pharmacokinetic parameters were calculated with the pharmacokinetic software Summit® PK solution. Two-tailed test was conducted for the AUC value of PTX alone and cotreatment. […] N.S. = not significant. / = not applicable.
In group 1, BALB/c mice were injected intravenously (i.v.) with 10 mg/kg of modulator, and their blood was collected at 10, 30, 60, 120, 240, and 480 min postadministration. In group 2, BALB/c mice were injected intraperitoneally (i.p.) with 30 mg/kg of modulator, and their blood was collected at 10, 30, 60, 180, 420, 840, and 1080 min postadministration.
The pharmacokinetics of PTX was studied with or without the coadministered modulator. PTX (12 mg/kg i.v.) alone was injected into the BALB/c mice. For the combination study, modulator (30 mg/kg i.p.) was injected 1 h before injecting PTX (12 mg/kg i.v.). The blood was collected at 10, 30, 60, 120, 240, and 420 min after PTX administration. Blood samples were spun at 14,000 rpm for 10 min at 4 °C to collect plasma supernatant. Plasma concentration of methylated catechin derivatives or PTX was determined through UPLC-QQQ-MS as described in Section 4.9. Pharmacokinetic parameters were analyzed with PK Solutions 2.0 (Summit Research Service, Ashland, OH, USA).

[5] = biological target: T1, P-gp (Homo sapiens, UniProt P08183); test: EC50 for reversing drug resistance in LCC6MDR cells (cell proliferation assay); conditions: EC50 for Reversing MDR, LCC6MDR
Description: as §2, §3

[6] = biological target: T1, P-gp; parameters: expressed in transfected cells; host or cells: MDA435/LCC6MDR (human breast cancer line, gift of Dr. Robert Clarke); conditions: Cpds at 1 μM; IC50 of PTX without/with modulator; cited from earlier work
[7] = system: P-gp; test: DOX efflux in P388ADR cells; format: cell-based, mouse; conditions: 1 µM modulator; after 180 min of efflux; P388ADR preloaded with 20 µM DOX
Description: Figure 2 Effect of methylated catechin derivatives on intracellular DOX accumulation and DOX efflux in the P-gp-overexpressing cancer cells. […] Then, the cells were washed, and the intracellular DOX level was measured using flow cytometer. (A) LCC6MDR, (B) P388ADR, and (C) K562/P-gp. […] (D) In the efflux study, P388ADR cells were firstly incubated with 20 µM DOX for 45 min. […] At 60, 120, and 180 min, the cells were harvested, and the intracellular DOX level was measured. At 180 min, ** represents p < 0.01, and *** represents p < 0.001, both being relative to P388ADR incubated with DMSO only. […] N = 3 independent experiments. DMSO was used as a solvent control, and the highest amount used was 0.5%.
We investigated if methylated catechin derivatives could inhibit P-gp-mediated drug efflux in P-gp-overexpressing cells. […] Without a modulator, intracellularly, the DOX level was maintained at 80% and 11% after 180 min for P388 and P388ADR cells, respectively (Figure 2D). […] After 180 min of efflux, the intracellular DOX level could be maintained at 61% (p < 0.001), 59% (p < 0.01), 44 % (p < 0.001), and 37%, respectively (Figure 2D).

[8] = biological target: T1, P-gp; test: EC50 for reversing drug resistance in K562/P-gp cells (cell proliferation assay); conditions: EC50 for Reversing MDR
Description: as §2, §3

[9] = system: MRP1; conditions: Cpds at 1 μM; IC50 of DOX without/with modulator; cited from earlier work
[10] = system: fibroblast cells; parameters: method as in PMID 25985195, PMID 34597896; conditions: cited from earlier work
[11] = biological target: T1, P-gp; test: Vanadate-sensitive P-gp ATPase activity assay (P-gp-Glo); conditions: 70 µM
Description: (A) Effect of EC31 on vanadate-sensitive P-gp ATPase was studied. EC31, C25, and EGCG at different concentrations (10, 50, and 70 µM) were incubated with recombinant human P-gp microsomes and MgATP with or without sodium vanadate. After stopping the reaction, the remaining ATP level was determined by measuring the luciferase-generated luminescent signal. Vanadate-inhibitable P-gp ATPase activity was determined by calculating the luminescence signal in the samples with or without sodium vanadate. […] P-gp ATPase activity caused by compounds was normalized to basal P-gp ATPase activity (human P-gp microsome treated with DMSO) and was presented as fold change. A dashed line at 1.0-fold change represented the basal P-gp ATPase activity. […] The values in this figure were presented as mean ± standard error of mean. N = 3 independent experiments.
P-gp ATPase activity was measured with P-gp-Glo assay system (Promega, #V3601) with human P-gp membrane vesicles as reported previously [32]. […] The reaction was initiated by adding MgATP and was then incubated at 37 °C for 1 h. […] The remaining ATP signal of luminescence was measured with a Clariostar microplate reader (BMG Labtech, Ortenberg, Germany). Vanadate-inhibitable P-gp ATPase activity was determined by calculating the luminescence signal in the samples with or without sodium vanadate.

[12] = system: P-gp; parameters: method as in PMID 25985195, PMID 34597896; conditions: cited from earlier work
[13] = read-out: EC50 for Reversing MDR, DOX Resistance, P388ADR, concentration that reduces IC50 of DOX by half
[14] = read-out: EC50 for Reversing MDR, PTX Resistance, P388ADR, concentration that reduces IC50 of PTX by half
[15] = DOX Resistance, concentration that reduces IC50 of DOX by half
[16] = PTX Resistance, concentration that reduces IC50 of PTX by half
[17] = DOX Resistance, K562/P-gp, concentration that reduces IC50 of DOX by half
[18] = VCR Resistance, K562, concentration that reduces IC50 of VCR by half, column head prints K562

T1 sequence (P08183 whole entry): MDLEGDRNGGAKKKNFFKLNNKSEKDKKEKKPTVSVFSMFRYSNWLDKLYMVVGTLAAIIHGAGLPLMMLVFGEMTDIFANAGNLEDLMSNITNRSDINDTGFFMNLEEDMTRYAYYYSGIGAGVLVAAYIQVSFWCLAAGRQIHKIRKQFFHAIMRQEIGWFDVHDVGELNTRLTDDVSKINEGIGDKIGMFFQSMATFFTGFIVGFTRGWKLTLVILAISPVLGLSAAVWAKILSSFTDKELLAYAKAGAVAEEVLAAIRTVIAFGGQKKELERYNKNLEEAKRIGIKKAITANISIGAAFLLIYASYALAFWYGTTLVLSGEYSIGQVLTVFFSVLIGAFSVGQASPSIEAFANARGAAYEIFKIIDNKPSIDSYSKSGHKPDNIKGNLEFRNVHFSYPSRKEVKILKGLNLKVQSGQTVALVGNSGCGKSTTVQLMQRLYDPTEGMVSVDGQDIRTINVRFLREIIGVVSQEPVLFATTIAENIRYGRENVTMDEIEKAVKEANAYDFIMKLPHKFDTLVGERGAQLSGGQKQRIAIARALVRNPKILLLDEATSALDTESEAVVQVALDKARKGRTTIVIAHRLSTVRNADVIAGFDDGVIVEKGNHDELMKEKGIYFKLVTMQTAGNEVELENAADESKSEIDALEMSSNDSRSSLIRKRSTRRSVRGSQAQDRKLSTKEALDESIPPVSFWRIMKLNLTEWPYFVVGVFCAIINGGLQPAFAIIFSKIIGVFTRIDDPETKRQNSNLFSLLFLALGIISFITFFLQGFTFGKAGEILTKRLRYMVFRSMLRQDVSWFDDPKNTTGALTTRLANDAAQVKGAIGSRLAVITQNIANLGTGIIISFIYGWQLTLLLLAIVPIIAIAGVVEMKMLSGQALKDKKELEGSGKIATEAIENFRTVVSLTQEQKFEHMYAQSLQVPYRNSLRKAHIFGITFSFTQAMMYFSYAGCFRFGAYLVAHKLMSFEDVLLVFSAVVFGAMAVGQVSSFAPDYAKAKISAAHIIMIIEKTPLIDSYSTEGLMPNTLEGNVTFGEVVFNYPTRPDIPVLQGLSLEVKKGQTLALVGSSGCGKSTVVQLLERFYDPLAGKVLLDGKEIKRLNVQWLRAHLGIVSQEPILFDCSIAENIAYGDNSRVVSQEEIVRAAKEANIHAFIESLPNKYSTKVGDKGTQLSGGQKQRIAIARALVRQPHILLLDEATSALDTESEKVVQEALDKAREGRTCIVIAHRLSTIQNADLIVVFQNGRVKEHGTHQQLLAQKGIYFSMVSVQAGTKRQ

AUC(0-t) ([4]; ip, 30 mg/kg) [ng·h/mL]	Cmax ([4]; ip, 30 mg/kg) [ng/mL]	Tmax ([4]; ip, 30 mg/kg) [h]	half-life ([4]; ip, 30 mg/kg) [h]	AUC(0-inf) ([4]; ip, 30 mg/kg) [ng·h/mL]	AUC(0-t) ([4]; iv, 10 mg/kg) [ng·h/mL]	half-life ([4]; iv, 10 mg/kg) [h]	AUC(0-inf) ([4]; iv, 10 mg/kg) [ng·h/mL]	EC50 [5, 15] [nM]	EC50 [5, 16] [nM]	EC50 [8, 17] [nM]	EC50 [8, 18] [nM]	Structure (SMILES)	EC50 [3, 13] [nM]	EC50 [3, 14] [nM]	LCC6MDR P-gp-modulating activity RF (relative fold) [6]	Relative intracellular DOX level (%) [7] [%]	2008MRP1 MRP1-modulating activity RF (relative fold) [9]	other results
–	–	–	–	–	–	–	–	–	–	–	–	CC[C@]1(O)C[C@H]2CN(CCc3c([nH]c4ccccc34)[C@@](C(=O)OC)(c3cc4c(cc3OC)N(C=O)[C@H]3[C@@](O)(C(=O)OC)[C@H](OC(C)=O)[C@]5(CC)C=CCN6CC[C@]43[C@@H]65)C2)C1 [VCR, vincristine]	–	–	–	–	–	IC50 ([1]; Homo sapiens, K562, 72 h, 3 days incubation): 84.1 ± 6.4 nM; RF (relative fold) ([1]; IC50 in K562/P-gp relative to K562): 168.2; IC50 [2]: 0.5 ± 0.1 nM
24500	6120	1	3.83	25700	13000	1.52	13600	233 ± 36	82 ± 14	129 ± 36	77 ± 7	COc1cc(OC)c2c(c1)O[C@H](c1cc(OC)c(OC)c(OC)c1)[C@@H](OC(=O)c1ccc(F)c(NC(=O)c3cc(OC)c(OC)c(OC)c3)c1)C2 [GC51]	335 ± 15	496 ± 12	52.6	59	3.0	–
21200	5260	1	3.12	21600	8870	0.85	8890	180 ± 18	91 ± 5	93 ± 21	60 ± 12	COc1cc(OC)c2c(c1)O[C@H](c1ccc(OC)c(OC)c1)[C@@H](OC(=O)c1ccc(F)c(NC(=O)c3cc(OC)c(OC)c(OC)c3)c1)C2 [C25]	260 ± 60	216 ± 10	84.7	37	1.2	IC50 [10]: > 100000 nM; P-gp ATPase activity, fold change relative to basal [11]: ≤ 1.6 fold; effect on plasma membrane level of P-gp [12]: did not affect
[…]	2210	1	2.45	7090	3190	0.538	3210	–	–	–	–	COc1cc(OC)c2c(c1)OC(c1cc(OC)c(OC)c(OC)c1)C(OC(=O)C=Cc1cc(OC)c(OC)c(OC)c1)C2 (centres unmarked) [EGC23]	[…]	[…]	–	–	–	–
